Legend:
[1] = tested on: subcutaneous xenografts of U87 cells; test: Preliminary efficacy study, subcutaneous U87 xenografts; type: in vivo; conditions: 7 mg/kg, administered twice i.p.
Procedure: (§1) Male immunodeficient mice (Rag1^−/−), aged 4–8 weeks, were used for xenograft studies. A total of 1 × 10^6 U87 cells were injected subcutaneously into the rear axillary region to establish solid tumors. […] Maximum tolerated dose (MTD) testing for 5 was performed in 6- to 8-week-old male Rag1 mice using two animals per dose group. Compound 5 was administered i.p. at doses of 7 mg/kg, 12.5 mg/kg, 25 mg/kg, 50 mg/kg, 100 mg/kg, and 200 mg/kg. The carrier consisted of 10% (v/v) DMSO with 5% (v/v) Tween-80 and was diluted in 0.9% (w/v) NaCl. Animals were monitored for weight loss, changes in feeding or neurological signs, and any morbidity to identify the highest non-toxic dose. For efficacy studies, Rag1 mice were inoculated subcutaneously with 1 × 10^6 cells (mean starting weight ≈ 20 g); animals were then randomized into treatment groups. The compound 5 group (n = 5) received 7 mg/kg i.p. (two injections during the study period). Comparator groups included carrier control (n = 5). Compound 5 was formulated in the vehicle described above. The study was terminated when tumors in untreated mice reached approximately 11% of body weight. At termination, animals were euthanized and tumors were excised. Tumor volumes and body weights were recorded throughout the experiment and used to assess efficacy and tolerability.

[2] = Maximum tolerated dose testing; conditions: Rag1-/- (immunodeficient), mouse, in vivo, ip, male Rag1 mice; read-out: maximal tolerated dose (MTD)
Procedure: as §1

[3] = tested on: TrxR1 protein in U87 cells; test: TrxR1 protein expression by flow cytometry, U87; type: cell-based, human; conditions: U87, 4 µM, 48 h
Procedure: Flow cytometry was used to assess TrxR1 and ASK1 protein expression in the U87 and U87-TxR cell lines. Cells were seeded and allowed to attach overnight before exposure to compounds 2 and 5 at final concentrations of 2 μM and 4 μM. After 48 h treatment, cells were collected by trypsinization, rinsed with PBS, and subsequently fixed in 4% PFA for 10 min at room temperature. For permeabilization, ice-cold absolute methanol was added, and the samples were maintained at −20 °C overnight. Following this step, cells were washed in PBS and incubated for 1 h in 0.5% BSA/PBS to block nonspecific binding. Pelleted cells were then resuspended in primary antibodies diluted in 0.5% BSA/PBS [(ASK1, 1:200 (ab45178, Abcam, Cambridge, UK); TrxR1, 1:500 (ab124954, Abcam, Cambridge, UK)] and incubated overnight at +4 °C. Cells were then washed in PBS and incubated for 1 h at room temperature in the dark with fluorescently labeled anti-rabbit IgG secondary antibody (Alexa Fluor 488, ab150097, Abcam, Cambridge, UK), diluted 1:1000 in 0.5% BSA/PBS. Following incubation, samples were washed, resuspended in cold PBS, and analyzed by flow cytometry. A minimum of 10,000 events per sample were acquired, and fluorescence was detected in a green fluorescence channel (525 nm). Data acquisition and processing were performed using CytExpert software (version 2.4.0.28; Beckman Coulter, Indianapolis, IN, USA).

| Structure (SMILES) | Body weight [1] | tumor growth ([1]; over 12 days) | MTD [2] | TrxR1 levels [3] |
| --- | --- | --- | --- | --- |
| CC1(C)CCC[C@]2(C)[C@@H](CC[C@@](C)(O)/C=C/c3ccc(CNCCCCCCCCNCC45CC6CC(CC(C6)C4)C5)o3)[C@](C)(O)CC[C@@H]12 [Compound 5] | not adversely affected | strongly inhibits tumor growth | 25 mg/kg | – |
| CC1(C)CCC[C@]2(C)[C@@H](CC[C@@](C)(O)/C=C/c3ccc(CNCCCCCCCCNCC45CC6CC(CC(C6)C4)C5)s3)[C@](C)(O)CC[C@@H]12 [Compound 2] | – | – | – | slight increase |
